Data published in US10689370B2, “Cyclopropane carboxamide modulators of cystic fibrosis transmembrane conductance regulator” (Auspex Pharmaceuticals, Inc., priority 2014, dated 2020).

Test: In vitro human liver microsomal stability assay
Type: in vitro ADME
Conditions: human liver microsomes 2 mg per mL protein, NADPH-generating system, 1 uM test compound, 37 °C, 0-240 min; for half-life % change over d0: degradation half-life relative to non-deuterated d0 (Example 1); for Clearance % change over d0: relative to non-deuterated d0 (Example 1)
Experimental: In Vitro Liver Microsomal Stability Assay
Human liver microsomal stability assays were conducted at 2 mg per mL liver microsome protein with an NADPH-generating system consisting of NADP (1 mM, pH 7.4), glucose 6-phosphate (5 mM, pH 7.4) and glucose 6-phosphate dehydrogenase (I unit/mL). Test compounds were prepared as solutions in DMSO and added to the assay mixture (1 uM, final concentration in incubation) and incubated at 37±1° C. Reactions were initiated with addition of the test compounds and stopped at 0, 60, 120 or 240 min after test article addition with stop reagent, acetonitrile. Samples were centrifuged (920×g for 10 min at 10° C.) in 96-well plates. Supernatant fractions were analyzed by LC-MS/MS to determine the percent remaining and estimate the degradation half-life of the test compounds.

half-life % change over d0	Clearance % change over d0	SMILES
−4.2%	4.8%	[2H]C([2H])([2H])C(CO)(c1cc2cc(NC(=O)C3(c4ccc5c(c4)OC(F)(F)O5)C([2H])([2H])C3([2H])[2H])c(F)cc2n1C[C@@H](O)CO)C([2H])([2H])[2H] [Example 7, (R)-1-(2,2-difluorobenzo[d][1,3]dioxol-5-yl)-N-(1-(2,3-dihydroxypropyl)-6-fluoro-2-(1-hydroxy-2-methyl(^2H6)propan-2-yl)-1H-indol-5-yl)(^2H4)cyclopropanecarboxamide]
4.8%	−4.8%	[2H]C([2H])(O)[C@]([2H])(O)Cn1c(C(C)(C)CO)cc2cc(NC(=O)C3(c4ccc5c(c4)OC(F)(F)O5)CC3)c(F)cc21 [Example 4, (R)1-(2,2-difluoro-2H-1,3-benzodioxol-5-yl)-N-[1-[2,3-dihydroxy(2,3,3-^2H3)propyl]-6-fluoro-2-(1-hydroxy-2-methylpropan-2-yl)-1H-indol-5-yl]cyclopropane-1-carboxamide]
250.3%	−71.4%	[2H]C([2H])(O)C(C)(C)c1cc2cc(NC(=O)C3(c4ccc5c(c4)OC(F)(F)O5)CC3)c(F)cc2n1C[C@@]([2H])(O)C([2H])([2H])O [Example 5, (R)1-(2,2-difluoro-2H-1,3-benzodioxol-5-yl)-N-[1-[2,3-dihydroxy(2,3,3-^2H3)propyl]-6-fluoro-2-(1-hydroxy-2-methyl(1,1-^2H2)propan-2-yl)-1H-indol-5-yl]cyclopropane-1-carboxamide]
4.8%	−4.8%	[2H]C([2H])(O)[C@H](O)Cn1c(C(C)(C)CO)cc2cc(NC(=O)C3(c4ccc5c(c4)OC(F)(F)O5)CC3)c(F)cc21 [Example 8, (R)1-(2,2-difluoro-2H-1,3-benzodioxol-5-yl)-N-[1-[2,3-dihydroxy(3,3-^2H2)propyl]-6-fluoro-2-(1-hydroxy-2-methylpropan-2-yl)-1H-indol-5-yl]cyclopropane-1-carboxamide]
0.0%	0.0%	CC(C)(CO)c1cc2cc(NC(=O)C3(c4ccc5c(c4)OC(F)(F)O5)CC3)c(F)cc2n1C[C@@H](O)CO [Example 1, (R)-1-(2,2-difluorobenzo[d][1,3]dioxol-5-yl)-N-(1-(2,3-dihydroxypropyl)-6-fluoro-2-(1-hydroxy-2-methylpropan-2-yl)-1H-indol-5-yl)cyclopropanecarboxamide, reference compound]
200.0%	−66.7%	[2H]C([2H])(O)C(C)(C)c1cc2cc(NC(=O)C3(c4ccc5c(c4)OC(F)(F)O5)CC3)c(F)cc2n1C[C@@H](O)CO [Example 2]
281.8%	−73.8%	[2H]C([2H])(O)C(C)(C)c1cc2cc(NC(=O)C3(c4ccc5c(c4)OC(F)(F)O5)C([2H])([2H])C3([2H])[2H])c(F)cc2n1C[C@@H](O)CO [Example 6]
13.3%	−11.9%	[2H]C([2H])([2H])C(CO)(c1cc2cc(NC(=O)C3(c4ccc5c(c4)OC(F)(F)O5)CC3)c(F)cc2n1C[C@@H](O)CO)C([2H])([2H])[2H] [Example 3, 1-(2,2-difluoro-2H-1,3-benzodioxol-5-yl)-N-[1-[(2R)-2,3-dihydroxypropyl]-6-fluoro-2-[1-hydroxy-2-methyl(^2H6)propan-2-yl]-1H-indol-5-yl]cyclopropane-1-carboxamide]
